Patent US20240196946A1, “METABOLICALLY MODIFIED VANILLA BEANS AND METHODS FOR PRODUCING SAME” (VANILLA TECHNOLOGIES LTD., priority 2021, published 2024)

Experiments:
vanilla beans = assay: Vanillin content analysis by spectrophotometry of treated, cured vanilla beans; design: species or system Vanilla planifolia; details: relative to water control; FIG. 1; concentrations as in Table 1
Method: Target chemical compounds (set forth in table 1 below) were dissolved in water and pH adjusted to pH-7. Green beans cut into 1 cm pieces were placed in a 50 ml tube or intact beans placed in a bucket. A 10 ml solution containing one of the compounds indicated in Table 1 dissolved in water and 0.1% of each of the four surfactants tween 20, tween 80, span 20, and span 80 was added per each bean. The beans were incubated with the solution for 0.5-36 hours (e.g. overnight) at room temperature. The solution was the filtered out, the beans washed, and placed in a drying chamber with controlled temperature and humidity conditions to provide killing and curing as known in the art. The beans were weighted daily and at a 25-30% of their original weight, subjected to vanillin content analysis by spectrophotometry, as well as to a flavor test by a sensory panel.

Vanilla planifolia beans = assay: GC-MS headspace (SPME) analysis of treated vanilla beans (Example 2); details: for Phenylethyl Alcohol and 3-Phenyl-2-propenoic acid methyl ester / compounds giving a vinegar anisic and creamy flavor (acetic acid, creosol and 2,3-Butanediol): FIG. 3E, glutathione results not shown; for vanillin levels: GC-MS headspace vs control, FIG. 3A-3E; for constituents delivering vinegar anisic and floral flavors (acetic acid, creosol and acetoin): 3C
Description: The treated vanilla beans were further analyzed by Gas Chromatography-Mass Spectrometry (GC-MS) in headspace mode with solid phase micro extraction (SPME) fiber. Compound identification was done by retention index and mass spectra. Compound flavor was obtained by searching a compound name in the following databases: https://pubchem.ncbi.nlm.nih.gov/ and […].com/.

Row | Compound | vanillin content (abundance of vanillin) (vanilla beans) | Phenylethyl Alcohol and 3-Phenyl-2-propenoic acid methyl ester (Vanilla planifolia beans) | compounds giving a vinegar anisic and creamy flavor (acetic acid, creosol and 2,3-Butanediol) (Vanilla planifolia beans) | vanillin levels (Vanilla planifolia beans) | acetic acid, 2,3-Butanediol and acetoin (Vanilla planifolia beans; FIG. 3D) | level of compounds giving anisic and floral flavors (creosol and benzeneacetaldehyde) (Vanilla planifolia beans; FIG. 3D) | levels of constituents resulting in a nutty flavor (3-hydroxy-Benzaldehyde) (Vanilla planifolia beans; FIG. 3B) | constituents delivering vinegar anisic and floral flavors (acetic acid, creosol and acetoin) (Vanilla planifolia beans; FIG. 3B) | levels of constituents delivering a nutty coffee flavor (3-hydroxy-Benzaldehyde and 2-methyl-Butanal) (Vanilla planifolia beans; FIG. 3C)
1 | N[C@@H](CCC(=O)N[C@@H](CS)C(=O)NCC(=O)O)C(=O)O [L- glutathione] | reduced vanillin content | induced the formation | reduced abundance | increase |  |  |  |  | 
2 | N[C@@H](Cc1ccccc1)C(=O)O [L-Phenylalanine] | reduced vanillin content | induced the formation | reduced abundance | increase |  |  |  |  | 
3 | CC(=O)C(=O)O [Pyruvic acid] |  |  |  | increase | formation | decreasing |  |  | 
4 | O=C(O)c1ccccc1O [Salicylic acid] | large increase |  |  | marked increase |  |  | increased | decrease | 
5 | Chitosan |  |  |  | milder increase |  |  |  | decrease | increased
